Experiments:
lipid peroxidation = assay: Inhibition of lipid peroxidation in vitro, thiobarbituric acid test (synaptosomal membrane fraction, Fenton's reagent); settings: read-out: Lipid peroxidation inhibition [IC50], iron(II) chloride/hydrogen peroxide, 30 min at 37° C.
LDL oxidation = assay: Inhibition of LDL oxidation in vitro, method of Esterbauer et al (1988), CuSO4, 234 nm; format: biochemical; settings: 1 μM, LDL isolated from human whole blood, room temperature, at least 8 h
Experimental: The measurement of in vitro inhibition of LDL oxidation was performed in accordance with Esterbauer et al (1988): Effect of peroxidative conditions on human plasma low density lipoproteins. In: Eicosanoids, lipid peroxidation and cancer (ed. Nigam et al), pages 203-214, Springer-Verlag,Berlin, Heidelberg, New York.
The values listed in Table 2 for inhibition of LDL oxidation represent examples for cardiovascular activities.
Testing of the substances for inhibitory action with regard to LDL oxidation, by the method of Esterbauer et al (1988), was carried out as follows:
The reaction mixture is incubated at room temperature over a period of at least 8 h and followed spectral photometrically (the absorption maximum of the oxidized LDL is at 234 nm). In accordance with the extinction changes, recorded at the measurement wavelength of 234 nm, in the presence or absence of test substances or in comparison of the native and the oxidized LDL, definitive statements on the influence on the oxidized LDL by the action of the test substance.
Dosage-action analysis of the test substances.

Compound	IC50 (lipid peroxidation) [µM]	LDL oxidation inhibition (prolongation of lag phase in min) (LDL oxidation) [min]
COc1ccc2c(c1)CC[C@@H]1[C@@H]2CC[C@@]2(C)[C@H]1CC[C@@]2(O)Cc1cc(C)c(O)c(C)c1	2.34	–
Cc1cc(C2=C[C@@H]3[C@H](CC[C@]4(C)[C@@H](O)CC[C@@H]34)c3ccc(O)cc32)cc(C)c1O [6-2',6'-Dimethyl-4'-hydroxyphenylestra-1,3,5(10),6-tetraene-3,17β-diol]	0.95	180
CN(C)c1ccc(C2=C[C@@H]3[C@H](CC[C@]4(C)[C@@H](O)CC[C@@H]34)c3ccc(O)cc32)cc1 [6-4'-N,N-Dimethylaminophenylestra-1,3,5(10),6-tetraene-3,17β-diol]	2.75	–
C[C@]12CC[C@H]3[C@@H](C[C@@H](c4ccc(O)cc4)C4=CC(=O)CC[C@@]43C)[C@@H]1CC[C@@H]2O [6β-4'-Hydroxyphenyl-17β-hydroxyandrost-4-ene-3-one]	60	–
CN(C)c1ccc(C2=CC[C@H]3[C@@H]4CCc5cc(O)ccc5[C@H]4CC[C@]23C)cc1 [17-4'-N,N-Dimethylaminophenylestra-1,3,5(10),16-tetraene-3-ol]	4.5	–
COc1ccc2c(c1)CCC1C2CCC2(C)C1CCC2(O)C[Se]c1c(C(C)(C)C)cc(O)cc1C(C)(C)C (stereo not drawn) [17α2',6'-Di-tert.-butyl-4'-hydroxyphenylselenomethyl-3-methoxyestra-1,3,5(10)-triene-17-ol]	4.97	–
COc1ccc2c(c1)CCC1C2CCC2(C)C1CCC2(O)Cc1c(C(C)(C)C)cc(O)cc1C(C)(C)C (stereo not drawn) [17α-2',6'-Di-tert.-butyl-4'-hydroxyphenylmethyl-3-methoxyestra-1,3,5(10)-triene-17-ol]	12.6	–
Cc1cc(O)cc(C)c1CC1(O)CCC2C3CCC4=CC(=O)CCC4C3CCC21C (stereo not drawn) [17α-2',6'-Dimethyl-4'-hydroxyphenylmethyl-17-hydroxyestr-4-ene-3-one]	1.92	–
COc1ccc2c(c1)CCC1C2CCC2(C)C1CCC2(O)C[Se]c1c(C)cc(O)cc1C (stereo not drawn) [17α-2',6'-Dimethyl-4'-hydroxyphenylselenomethyl-3-methoxyestra-1,3,5(10)-triene-17-ol]	1.97	–
C[C@]12CC[C@H]3[C@@H](CCC4=CC(=O)CC[C@@H]43)[C@@H]1CC[C@@]2(O)COc1ccc(O)cc1 [17α-4'-Hydroxyphenoxymethyl-17-hydroxyestr-4-ene-3-one]	10.1	–
COC1(OC)CCC2=C(CC[C@@H]3[C@@H]2CC[C@@]2(C)[C@H]3CC[C@@]2(O)CSc2ccc(O)cc2)C1 [17α-4'-Hydroxyphenylmercaptomethyl-3,3-dimethoxyestr-5(10)-ene-17-ol]	1.46	–
COc1ccc2c(c1)CC[C@@H]1[C@@H]2CC[C@@]2(C)[C@H]1CC[C@@]2(O)CSc1ccc(O)cc1 [17α-4'-Hydroxyphenylmercaptomethyl-3-methoxyestra-1,3,5(10)-triene-17-ol]	4.32	–
CC1CC(=O)CC2CCC3C(CCC4(C)C3CCC4(O)CSc3ccc(O)cc3)C12C (stereo not drawn) [17α-4'-Hydroxyphenylmercaptomethyl-17-hydroxy-1α-methyl-5α-androstan-3-one]	3.82	–
C[C@]12CCC(=O)C[C@@H]1CC[C@@H]1[C@@H]2CC[C@@]2(C)[C@H]1CC[C@@]2(O)CSc1ccc(O)cc1 [17α-4'-Hydroxyphenylmercaptomethyl-17-hydroxy-5α-androstan-3-one]	4.75	–
C[C@]12CCC(=O)C=C1CC[C@@H]1[C@@H]2CC[C@@]2(C)[C@H]1CC[C@@]2(O)CSc1ccc(O)cc1 [17α-4'-Hydroxyphenylmercaptomethyl-17-hydroxyandrost-4-ene-3-one]	10.9	–
C[C@]12CC[C@H]3[C@@H](CCC4=CC(=O)CC[C@@H]43)[C@@H]1CC[C@@]2(O)CSc1ccc(O)cc1 [17α-4'-Hydroxyphenylmercaptomethyl-17-hydroxyestr-4-ene-3-one]	8.6	–
C[C@]12CC=C3c4ccc(O)cc4CC[C@H]3[C@@H]1CC[C@@]2(O)CSc1ccc(O)cc1 [17α-4'-Hydroxyphenylmercaptomethylestra-1,3,5(10),9(11)-tetraene-3,17-diol]	0.44	270

Compound	IC50 (lipid peroxidation) [µM]	LDL oxidation inhibition (prolongation of lag phase in min) (LDL oxidation) [min]
C[C@]12CC[C@@H]3c4ccc(O)cc4CC[C@H]3[C@@H]1CC[C@@]2(O)CSc1ccc(O)cc1 [17α-4'-Hydroxyphenylmercaptomethylestra-1,3,5(10)-triene-3,17-diol]	2.2	120
COc1ccc2c(c1)CC[C@@H]1[C@@H]2CC[C@@]2(C)[C@H]1CC[C@@]2(O)Cc1ccc(O)cc1 [17α-4'-Hydroxyphenylmethyl-3-methoxyestra-1,3,5(10)-triene-17-ol]	2.64	–
C[C@]12CC[C@H]3[C@@H](CCC4=CC(=O)CC[C@@H]43)[C@@H]1CC[C@@]2(O)Cc1ccc(O)cc1 [17α-4'-Hydroxyphenylmethyl-17-hydroxyestr-4-ene-3-one]	50	–
C[C@]12CC=C3c4ccc(O)cc4CC[C@H]3[C@@H]1CC[C@@]2(O)Cc1ccc(O)cc1 [17α-4'-Hydroxyphenylmethylestra-1,3,5(10),9(11)-tetraene-3,17-diol]	0.32	230
C[C@]12CC[C@@H]3c4ccc(O)cc4CC[C@H]3[C@@H]1CC[C@@]2(O)Cc1ccc(O)cc1 [17α-4'-Hydroxyphenylmethylestra-1,3,5(10)-triene-3,17-diol]	4.03	125
CN(C)c1ccc([C@]2(O)CC[C@H]3[C@@H]4CCc5cc(O)ccc5[C@H]4CC[C@@]32C)cc1 [17α-4'-N,N-Dimethylaminophenylestra-1,3,5(10)-triene-3,17-diol]	0.95	170
COc1ccc2c(c1)CC[C@@H]1[C@@H]2CC[C@@]2(C)[C@H]1CC[C@@]2(O)Cc1ccc(N(C)C)cc1 [17α-4'-N,N-Dimethylaminophenylmethyl-3-methoxyestra-1,3,5(10)-triene-17-ol]	1.64	195
CN(C)c1ccc(C[C@]2(O)CC[C@H]3[C@@H]4CCC5=CC(=O)CC[C@@H]5[C@H]4CC[C@@]32C)cc1 [17α-4'-N,N-Dimethylaminophenylmethyl-17-hydroxyestr-4-ene-3-one]	> 10	–
CN(C)c1ccc(C[C@]2(O)CC[C@H]3[C@@H]4CCc5cc(O)ccc5C4=CC[C@@]32C)cc1 [17α-4'-N,N-Dimethylaminophenylmethylestra-1,3,5(10),9(11)-tetraene-3,17-diol]	2.1	–
CN(C)c1ccc(C[C@]2(O)CC[C@H]3[C@@H]4CCc5cc(O)ccc5[C@H]4CC[C@@]32C)cc1 [17α-4'-N,N-Dimethylaminophenylmethylestra-1,3,5(10)-triene-3,17-diol]	3.53	–
COc1ccc2c(c1)CC[C@@H]1[C@@H]2CC[C@@]2(C)[C@H]1CC[C@@]2(O)C[Se]c1ccc(N(C)C)cc1 [17α-4'-N,N-Dimethylaminophenylselenomethyl-3-methoxyestra-1,3,5(10)-triene-17-ol]	1.33	–
COC1(OC)CCC2=C(CC[C@@H]3[C@@H]2CC[C@@]2(C)[C@H]3CC[C@@]2(O)Cc2ccc(N(C)C)cc2)C1 [17α-4'-N,N-Dimethylphenylmethyl-3,3-dimethoxyestr-5(10)-ene-17-ol]	5.5	–
C[C@]12CC[C@@H]3c4ccc(O)cc4CC[C@H]3[C@@H]1CC[C@@H]2O [17β-Estradiol, reference compound]	12.4	40
C[C@]12CC[C@@H]3c4ccc(O)cc4CC[C@H]3[C@@H]1C[C@@H](O)[C@@H]2O [Estriol, reference compound]	22.5	20
Cc1c(C)c2c(c(C)c1O)CCC(C)(CN1CCN(c3cc(N4CCCC4)nc(N4CCCC4)n3)CC1)O2 (stereo not drawn) [Example U-78517F, reference compound]	–	20
Vitamin E [reference compound]	132	–
